The experiment concerns 699152-130-R-J1-PDC complex spheroid viability. As to the kind of experiment: Anticancer human tumor 699152-130-R-J1-PDC patient-derived pancreatic carcinoma cell line growth inhibition [POLQ]. Conditions: for viability, T/C: stronger effect = lower value. The method, then: Multicellular complex tumor spheroid response to Polymerase (POL) inhibitors (novobiocin, ART-558, RP6685) in combination with a variety of drugs and investigational agents in selected tumor cell lines
The POL inhibitors (novobiocin, ART-558, and RP6685) were evaluated both individually and in combination with standard of care and investigational anticancer small molecules within a complex spheroid model of solid tumors. . Complex spheroids include a stromal component modeled by human endothelial cells (HUVEC) and fibroblasts modeled by human mesenchymal stem cells (MSCs). The concentration ranges selected for each drug and investigational agent were based upon clinically achievable concentrations if the clinical Cmax of the agent was known.
Compounds. The drugs and investigational agents: novobiocin (NSC847541), ART-558 (NSC835418), RP-6685 (NSC848927), peposertib (NSC802822), ceralasertib (NSC780249), elimusertib (NSC800525), camonsertib (NSC841442), AZD-1390 (NSC803789), olaparib (NSC753686), talazoparib (NSC767125), rucaparib (NSC756644), sotorasib (NSC818433), MRTX-1133 (NSC836407), SN-38 (NSC673596), topotecan (NSC609699), epotoside (NSC141540), doxorubicin (NSC123127), gemcitabine (NSC613327), 5-fluorouracil (NSC19893), paclitaxel (NSC125973), vemurafenib (NSC761431), MSA-2 (NSC828583), SN-011 (NSC837082), adavosertib (NSC754352), prexasertib (NSC758257), carboplatin (NSC241240) and oxaliplatin (NSC266046), were obtained from the National Cancer Institute (NCI) Developmental Therapeutics Program Chemical Repository (21). The FDA-approved anticancer drug set is available from the Developmental Therapeutics Program at https://dtp.cancer.gov/organization/dscb/obtaining/. […] The stock solutions were prepared in dimethyl sulfoxide (DMSO, Sigma-Aldrich, St. Louis, MO, cat. D2650), except for the platinum compounds which were prepared in saline (Quality Biological, Gaithersburg, MD, cat. 114-055-101), at 800-fold the tested concentration and stored at -70 degrees C prior to their use. All drugs and investigational agents were tested over a range starting from a high concentration at or near the clinical Cmax and decreasing in half-log increments. If the clinical Cmax for an agent had not been determined, the highest concentration tested was 10 microM, except for SN-38, which was tested at a high concentration of 1 microM.
Cell Culture. All cells were maintained in an incubator at 37 degrees C and 5% CO2 with 95% humidity. The PDC lines were cultured according to standard operating procedures established by the NCI PDMR (https://pdmr.cancer.gov). Table 3 of the manuscript, lists the cell lines along with the number of the three cell types plated to form the mct-spheroids and media for tumor cell growth. After thawing, all PDC lines, except 997537-175-T-J1-PDC and 415267-285-R-J2-PDC, were cultured in Matrigel-coated flasks prepared with a working solution of 1X Ham's F-12 nutrient mix, without supplementation (Thermo Fisher Scientific, cat. 11765054), 100 U/mL penicillin-streptomycin (Thermo Fisher Scientific, cat. 15140122), and 2.5% Matrigel (Corning Inc., Corning, NY, cat. 354248) for the first three passages. The two PDC lines 997537-175-T-J1-PDC and 415267-285-R-J2-PDC were cultured on uncoated flasks. The 857933-349-R-J2-PDC line was cultured in 6C/Colon 1B media containing advanced DMEM/F-12 (Thermo Fisher Scientific, cat. 12634028), 10 mM HEPES (Thermo Fisher Scientific, cat. 15630080), 1X GlutaMAX supplement (Thermo Fisher Scientific, cat. 35050061), 0.1 mg/mL primocin (InvivoGen, San Diego, CA, cat. ant-pm-2), 10% defined fetal bovine serum, heat inactivated (HyClone Laboratories Inc., Logan, UT, cat. SH30070.03HI), 50% L-WRN conditioned media (ATCC, cat. CRL-3276), 1.25 mM N-Acetyl-L-cysteine (Sigma-Aldrich, cat. A9165), 10 mM nicotinamide (Sigma-Aldrich, cat. N0636), 1X B-27 supplement (Thermo Fisher Scientific, cat. 17504044), 1X N-2 supplement (Thermo Fisher Scientific, cat. […]

[1] abbreviates: compound alone, run of 12/05/2023.

Where “and” joins values, the source holds several entries; their conditions need not be identical. Identical values can stand only once.
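Further: spheroids exposed to agents for 7 days before viability reading.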
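Wherever viability, T/C is given: percent of DMSO vehicle control viability so 100% = vehicle and 0% = no viable signal.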

By IC50 is commonly meant the midpoint of a concentration-inhibition curve. In general, viability, T/C refers to the ratio of treated to control. In the case of `COc1cccc2c1C(=O)c1c(O)c3c(c(O)c1C2=O)CC(O)(C(=O)CO)CC3OC1CC(N)C(O)C(C)O1` (centres undefined) + Cc1cccc(N(C)C(=O)C2C(O)CCN2c2nc(C)cc(C(F)(F)F)c2C#N)c1, the concentration for half-maximal inhibition (IC50) is, setting by setting: (curve of first compound, second compound 0.0316 µM) 222 nM; (curve of first compound, second compound 0.1 µM) 244 nM; (curve of first compound, second compound 0.316 µM) 279 nM; (curve of first compound, second compound 1 µM) 276 nM; (curve of first compound, second compound 3.16 µM) 275 nM; (curve of first compound, second compound 10 µM) 257 nM. Also, the viability, T/C (second compound 0.0316 µM, first compound 0.0316 µM) is 102%; the viability, T/C (second compound 0.0316 µM, first compound 0.1 µM) was 59%; the viability, T/C (second compound 0.0316 µM, first compound 0.316 µM) is 47.5%; the viability, T/C (second compound 0.0316 µM, first compound 1 µM) is 34%; the viability, T/C (second compound 0.0316 µM, first compound 3.16 µM) is 3.59%; the viability, T/C (second compound 0.0316 µM, first compound 10 µM) is 10.4%. Further, the viability, T/C is 81.1% (second compound 0.1 µM, first compound 0.0316 µM); 61.3% (second compound 0.1 µM, first compound 0.1 µM); 47% (second compound 0.1 µM, first compound 0.316 µM); 31.3% (second compound 0.1 µM, first compound 1 µM); 3.36% (second compound 0.1 µM, first compound 3.16 µM); 8.95% (second compound 0.1 µM, first compound 10 µM). For the same compound, the viability, T/C was 85.7% (second compound 0.316 µM, first compound 0.0316 µM); 66% (second compound 0.316 µM, first compound 0.1 µM); 49.5% (second compound 0.316 µM, first compound 0.316 µM); 29.6% (second compound 0.316 µM, first compound 1 µM); 3.68% (second compound 0.316 µM, first compound 3.16 µM); 10.9% (second compound 0.316 µM, first compound 10 µM). Further, the viability, T/C is, setting by setting: (second compound 1 µM, first compound 0.0316 µM) 81.9%; (second compound 1 µM, first compound 0.1 µM) 68.5%; (second compound 1 µM, first compound 0.316 µM) 46.8%; (second compound 1 µM, first compound 1 µM) 28.7%; (second compound 1 µM, first compound 3.16 µM) 4.78%; (second compound 1 µM, first compound 10 µM) 12.1%. The viability, T/C (second compound 3.16 µM, first compound 0.0316 µM) was 85%; the viability, T/C (second compound 3.16 µM, first compound 0.1 µM) was 60.7%; the viability, T/C (second compound 3.16 µM, first compound 0.316 µM) is 55.2%; the viability, T/C (second compound 3.16 µM, first compound 1 µM) was 20%; the viability, T/C (second compound 3.16 µM, first compound 3.16 µM) was 6.82%; the viability, T/C (second compound 3.16 µM, first compound 10 µM) is 10.3%. Also, the viability, T/C runs as follows: (second compound 10 µM, first compound 0.0316 µM) 84.4%; (second compound 10 µM, first compound 0.1 µM) 60.2%; (second compound 10 µM, first compound 0.316 µM) 53.2%; (second compound 10 µM, first compound 1 µM) 12%; (second compound 10 µM, first compound 3.16 µM) 7.55%; (second compound 10 µM, first compound 10 µM) 10.8%.
As for `CC1COCCN1c1cc(C2(S(C)(=N)=O)CC2)nc(-c2ccnc3[nH]ccc23)n1` (centres undefined), the viability, T/C is 105% and 93.7% and 91.8% (compound 0.0316 µM); 102% and 97.1% and 94.4% (compound 0.1 µM); 90.2% and 91.5% and 105% (compound 0.316 µM); 88.6% and 97.4% and 88.8% (compound 1 µM); 76% and 82.6% and 74% (compound 3.16 µM); 73.1% and 68.3% and 65.9% (compound 10 µM). In addition, the 50% inhibitory concentration (IC50) (curve of compound) was greater than 10000 nM.
Take `Nc1ccn(C2OC(CO)C(O)C2(F)F)c(=O)n1` (centres undefined): the viability, T/C by setting is: (compound 0.0316 µM) 68.9% and 75.2% and 66%; (compound 0.1 µM) 63.8% and 57.4% and 54.5%; (compound 0.316 µM) 54.8% and 51.7% and 52.1%; (compound 1 µM) 49.3% and 52.1% and 41.2%; (compound 3.16 µM) 44.3% and 51.1% and 40.1%; (compound 10 µM) 39.6% and 44.7% and 36%. For the setting “curve of compound”, the IC50 is 917 nM and 786 nM and 277 nM.
With `Nc1ccc(C#CCN(C(=O)Cc2ncc(C(F)(F)F)cc2C(F)(F)F)c2ccc(F)cc2)nn1`, the viability, T/C is, setting by setting: (compound 0.0316 µM) 96.2% [middle of 13 runs]; (compound 0.1 µM) 99.3% [middle of 13 runs]; (compound 0.316 µM) 101% [middle of 13 runs]; (compound 1 µM) 101% [middle of 13 runs]; (compound 3.16 µM) 103% [middle of 13 runs]; (compound 10 µM) 113% [middle of 13 runs]. Also, the 50% inhibitory concentration (IC50) under setting [1] was greater than 10000 nM.
With `Cc1cccc(N(C)C(=O)C2C(O)CCN2c2nc(C)cc(C(F)(F)F)c2C#N)c1` (centres undefined), the viability, T/C runs as follows: (compound 0.0316 µM) 105% [middle of 13 runs]; (compound 0.1 µM) 102% [middle of 13 runs]; (compound 0.316 µM) 101% [middle of 13 runs]; (compound 1 µM) 104% [middle of 13 runs]; (compound 10 µM) 102% [middle of 13 runs]. The IC50 was greater than 10000 nM (compound alone, run of 11/27/2023) and greater than 10000 nM under setting [1].
`CCc1cc2c(N3CCc4c(cc(Cn5ccnc5)cc4-c4cn(C)nc4C(F)(F)F)C3=O)ccnc2c(OC)n1`: the viability, T/C runs as follows: (compound 0.0316 µM) 88.3% and 83.8% and 90.8%; (compound 0.1 µM) 81.6% and 90.7% and 76.9%; (compound 0.316 µM) 86.3% and 93.2% and 101%; (compound 1 µM) 102% and 81.5% and 103%; (compound 3.16 µM) 99.5% and 98.2% and 112%; (compound 10 µM) 89% and 94.7% and 88.3%. Also, the 50% inhibitory concentration (IC50) (curve of compound) was greater than 10000 nM.
Regarding `CC1COCCN1c1cc(-c2ccnn2C)c2ccnc(-c3ccn[nH]3)c2n1` (centres undefined), the viability, T/C by setting is: (compound 0.0316 µM) 94.9% and 97.6% and 88.8%; (compound 0.1 µM) 89.1% (2×) and 80.8%; (compound 0.316 µM) 71.1% and 68.5% and 77.8%; (compound 1 µM) 63.7% and 58.2% and 58.9%; (compound 3.16 µM) 49% and 54.1% and 49.1%; (compound 10 µM) 56.3% and 58.4% and 50.5%. Also, the IC50 (curve of compound) was > 10000 nM and 5900 nM.
